Experimental data reported in patent publication US20200205399A1, “COMPOSITION FOR CRYOPRESERVATION, METHOD FOR PRODUCING CRYOPRESERVED MATERIAL, CELL PREPARATION, METHOD FOR PRODUCING CELL PREPARATION, AND KIT FOR CRYOPRESERVATION” (TWO CELLS Co., Ltd., priority 2017, published 2020).
“Also recorded” adds a separate entry of the source.

These molecules were tested on gMSC (registered trademark) 1 (assay: Experimental cryopreservation of gMSC 1 (scaffold-free, three-dimensional mass of mesenchymal stem cells); cell count after thawing). Details: conclusion from gMSC 1 experiments, constituent added to 10% DMSO + basal medium + albumin.
Assay type: cell-based, human
Method: Primary cultured human synovium-derived MSCs were obtained through the following steps (1) to (4) or were obtained by shredding a tissue into fragments, immersing them in a culture solution (STK1) in a culture vessel, and allowing outgrowth of cells from the tissue fragments.
(1) Synovial tissue was taken from a human.
(2) The obtained synovial tissue was washed with PBS, then the tissue was added to 10 ml of a 0.4% collagenase solution and blended, and allowed to react at 37° C. for 1 to 4 hours.
(3) The resultant product was subjected to filtering and then centrifugation to recover the synovial tissue.
(4) Primary culture was carried out in a STK (registered trademark) 1 in accordance with the instructions from the manufacturer of the STK 1.
The primary cultured cells obtained in the above manner were subcultured and proliferated in a STK (registered trademark) 2 by repeated subculture, in accordance with the instructions from the manufacturer of the STK 2.
MSCs in a sub-confluent state (5th generation: P5) were washed once with phosphate buffered saline (PBS, calcium-free and magnesium-free, PBS(−), Cell Science & Technology Institute, Inc.), then detached with use of a cell detachment agent TrypLE Select CTS (Thermo Fisher Scientific Inc.), were collected, and suspended in a washing medium (DMEM, Sigma). Then, the cells were transferred to a tube for centrifugation, and subjected to centrifugation at 1500 rpm at room temperature for 5 minutes. The separated single cells were further suspended in a washing medium, and the number of cells was counted using trypan blue staining. The cells were inoculated onto a 6-well plate (SUMITOMO BAKELITE CO., LTD.) containing a STK (registered trademark) 2 at a density of 40×10^4 cells/cm^2, and cultured (high-density culture) in an incubator at 37° C. and 5% CO2 for 7 days. Culture media were replaced three days after the inoculation and five days after the inoculation. […]

| Molecule | cryopreservative effect on scaffold-free, three-dimensional mass of mesenchymal stem cells |
| --- | --- |
| CCCCC/C=C\C/C=C\CCCCCCCC(=O)O [linoleic acid, Linoleic Acid] | effective; also recorded: greater than the cryopreservative effect achieved by methyl-β-cyclodextrin |
| Phosphatidic acid sodium salt [PA] | effective |
| Tween 80 [reference compound] | not effective |
